From patent US7928139B2 (Amgen Inc., priority 2006, dated 2011)

These compounds were tested against HIF PHD2 (Homo sapiens, UniProt Q9GZT9) (assay: PHD2 inhibition assay (TR-FRET, VCB-Eu detection of hydroxylated P564-HIF1α peptide)). Conditions: 2 nM PHD2, 100 nM P564-HIF1α peptide, 0.25 μM 2-oxoglutarate, 100 μM FeCl2, 2 mM ascorbic acid.
Type: biochemical
Summary of the method: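 Human PHD2 (2 nM final) preincubated 1 h at room temperature with compound and 100 μM FeCl2 in pH 6 MES buffer, 5% DMSO final. Reaction with 100 nM biotinylated P564-HIF1α peptide, 2 mM ascorbate and 0.25 μM 2-oxoglutarate for 1 h, stopped with succinate. Hydroxylation read by TR-FRET (VCB-Eu/streptavidin-APC, 655/615 nm); IC50 from 4-parameter fit of percent of control.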

Chain of HIF PHD2 (Q9GZT9 whole entry): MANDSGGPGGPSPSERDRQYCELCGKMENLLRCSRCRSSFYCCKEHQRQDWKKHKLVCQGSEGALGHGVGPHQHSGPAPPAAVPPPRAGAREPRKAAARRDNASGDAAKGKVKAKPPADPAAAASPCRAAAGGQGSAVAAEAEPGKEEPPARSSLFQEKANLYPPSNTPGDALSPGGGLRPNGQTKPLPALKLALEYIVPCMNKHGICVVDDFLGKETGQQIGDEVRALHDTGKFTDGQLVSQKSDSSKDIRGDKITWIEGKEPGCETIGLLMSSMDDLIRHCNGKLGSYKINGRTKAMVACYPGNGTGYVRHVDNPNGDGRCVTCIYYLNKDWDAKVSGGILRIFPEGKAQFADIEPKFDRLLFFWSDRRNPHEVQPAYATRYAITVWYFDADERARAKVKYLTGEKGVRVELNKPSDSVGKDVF

Compound	IC50 [µM]
CC1(C)C(=O)C(C(=O)NCC(=O)O)=C(O)c2ccc(C#Cc3ccccc3)cc21 [Example 110, 2-(2-Hydroxy-1,1-dimethyl-4-oxo-7-(2-phenylethynyl)-1,4-dihydronaphthalene-3-carboxamido)acetic acid]	0.1 to 0.5
CCCCCCCCc1ccc2c(c1)C(C)(C)C(=O)C(C(=O)NCC(=O)O)=C2O [Example 115, 2-(2-hydroxy-1,1-dimethyl-7-octyl-4-oxo-1,4-dihydronaphthalene-3-carboxamido) acetic acid]	1 to 10
CC1(C)C(=O)C(C(=O)CCC(=O)O)=C(O)c2cc(Cl)c(Cl)cc21 [Example 118, 4-(6,7-Dichloro-3-hydroxy-4,4-dimethyl-1-oxo-1,4-dihydro-2-naphthalenyl)-4-oxobutanoic acid]	0.1 to 0.5
CC(CC(=O)O)C(=O)C1=C(O)c2cc(Cl)ccc2C2(CCOCC2)C1=O (centres unmarked) [Example 121, 4-(6-Chloro-2-hydroxy-4-oxo-2′,3′,5′,6′-tetrahydro-4H-spiro[naphthalene-1,4′-pyran]-3-yl)-3-methyl-4-oxobutanoic acid]	1 to 10
CC1(C#N)C(=O)C(C(=O)CCC(=O)O)=C(O)c2cc(Cl)ccc21 (centres unmarked) [Example 123, 4-(7-chloro-4-cyano-3-hydroxy-4-methyl-1-oxo-1,4-dihydro-2-naphthalenyl)-4-oxobutanoic acid]	1 to 10
CC1(C)C(=O)C(C(=O)CCC(=O)O)=C(O)c2ccc(F)c(F)c21 [Example 126, 4-(5,6-difluoro-1-hydroxy-4,4-dimethyl-3-oxo-3,4-dihydronaphthalen-2-yl)-4-oxobutanoic acid]	0.1 to 0.5
CC1(C)C(=O)C(C(=O)CCC(=O)O)=C(O)c2ccc(Cl)cc21 [Example 127, 4-(6-chloro-1-hydroxy-4,4-dimethyl-3-oxo-3,4-dihydronaphthalen-2-yl)-4-oxobutanoic acid]	0.1 to 0.5
CC1(C#N)C(=O)C(C(=O)NCC(=O)O)=C(O)c2ccc(Br)cc21 (centres unmarked) [Example 132, 2-(7-bromo-1-cyano-4-hydroxy-1-methyl-2-oxo-1,2-dihydronaphthalene-3-carboxamido) acetic acid]	< 0.1
CC1(C#N)C(=O)C(C(=O)NCC(=O)O)=C(O)c2cc(F)c(F)cc21 (centres unmarked) [Example 133, 2-(1-cyano-6,7-difluoro-4-hydroxy-1-methyl-2-oxo-1,2-dihydronaphthalene-3-carboxamido) acetic acid]	< 0.1
(R)-2-(7-bromo-1- cyano-4-hydroxy-1- methyl-2-oxo-1,2- dihydronaphthalene- 3-carboxamido) acetic acid or (S)-2-(7-bromo-1- cyano-4-hydroxy-1- methyl-2-oxo-1,2- dihydronaphthalene- 3-carboxamido) acetic acid [Example 134]	< 0.1
(R)-2-(7-chloro-1- cyano-4-hydroxy-1- methyl-2-oxo-1,2- dihydronaphthalene- 3-carboxamido) acetic acid or (S)-2-(7-chloro-1- cyano-4-hydroxy-1- methyl-2-oxo-1,2- dihydronaphthalene- 3-carboxamido) acetic acid [Example 136]	< 0.1

The next lines start with the values.

IC50 [µM]	Compound
< 0.1	CC1(C)C(=O)C(C(=O)NCC(=O)O)=C(O)c2ccc(/C=C/c3ccccc3)cc21 [Example 108, (E)-2-(2-Hydroxy-1,1-dimethyl-4-oxo-7-styryl-1,4-dihydronaphthalene-3-carboxamido)acetic acid]
< 0.1	CC1(C)C(=O)C(C(=O)NCC(=O)O)=C(O)c2ccc(CCc3ccccc3)cc21 [Example 109, 2-(2-Hydroxy-1,1-dimethyl-4-oxo-7-phenethyl-1,4-dihydronaphthalene-3-carboxamido)acetic acid]
< 0.1	O=C(O)CNC(=O)C1=C(O)c2cccc(Cl)c2C2(CCOCC2)C1=O [Example 111, N-((8-Chloro-2-hydroxy-4-oxo-2′,3′,5′,6′-tetrahydro-4H-spiro[naphthalene-1,4′-pyran]-3-yl)carbonyl)glycine]
< 0.1	O=C(O)CNC(=O)C1=C(O)c2c(Cl)cccc2C2(CCOCC2)C1=O [Example 112, N-((5-Chloro-2-hydroxy-4-oxo-2′,3′,5′,6′-tetrahydro-4H-spiro[naphthalene-1,4′-pyran]-3-yl)carbonyl)glycine]
< 0.1	O=C(O)CNC(=O)C1=C(O)c2ccc(F)c(F)c2C2(CCOCC2)C1=O [Example 113, N-((7,8-Difluoro-2-hydroxy-4-oxo-2′,3′,5′,6′-tetrahydro-4H-spiro[naphthalene-1,4′-pyran]-3-yl)carbonyl)glycine]
< 0.1	COCC#Cc1ccc2c(c1)C(C)(C)C(=O)C(C(=O)NCC(=O)O)=C2O [Example 116, 2-(2-hydroxy-7-(3-methoxyprop-1-ynyl)-1,1-dimethyl-4-oxo-1,4-dihydronaphthalene-3-carboxamido) acetic acid]
< 0.1	CC1(C)C(=O)C(C(=O)NCC(=O)O)=C(O)c2ccc(C#Cc3cccnc3)cc21 [Example 117, 2-(2-hydroxy-1,1-dimethyl-4-oxo-7-(2-(pyridin-3-yl)ethynyl)-1,4-dihydronaphthalene-3-carboxamido) acetic acid]
< 0.1	O=C(O)CCC(=O)C1=C(O)c2cc(Cl)ccc2C2(CCOCC2)C1=O [Example 119, 4-(6-Chloro-2-hydroxy-4-oxo-2′,3′,5′,6′-tetrahydro-4H-spiro[naphthalene-1,4′-pyran]-3-yl)-4-oxobutanoic acid]
< 0.1	O=C(O)CCC(=O)C1=C(O)c2ccc(Cl)cc2C2(CCOCC2)C1=O [Example 128, 4-(7-chloro-2-hydroxy-4-oxo-2′,3′,5′,6′-tetrahydro-4H-spiro[naphthalene-1,4′-pyran]-3-yl)-4-oxobutanoic acid]
< 0.1	CC1(C#N)C(=O)C(C(=O)NCC(=O)O)=C(O)c2ccc(Cl)cc21 (centres unmarked) [Example 129, 2-(7-chloro-1-cyano-4-hydroxy-1-methyl-2-oxo-1,2-dihydronaphthalene-3-carboxamido) acetic acid]
< 0.1	CC1(C#N)C(=O)C(C(=O)NCC(=O)O)=C(O)c2ccc(F)cc21 (centres unmarked) [Example 130, 2-(1-cyano-7-fluoro-4-hydroxy-1-methyl-2-oxo-1,2-dihydronaphthalene-3-carboxamido) acetic acid]
< 0.1	CC1(C#N)C(=O)C(C(=O)NCC(=O)O)=C(O)c2cc(F)ccc21 (centres unmarked) [Example 131, 2-(1-cyano-6-fluoro-4-hydroxy-1-methyl-2-oxo-1,2-dihydronaphthalene-3-carboxamido) acetic acid]
